Laboratory results as given in patent US9283269B2, “Method for reducing the allergenicity of animal dander” (IMMUNOPATH PROFILE, INC., priority 1998, dated 2016).

What was measured:
[1] = ionizing side chain of the amino acid residue; cited from earlier work
[2] = cited from earlier work; for absorption after oral administration: gastrointestinal tract
[3] = test system: dermatitis and fungal infection of the toe nail; conditions: 50% acetic acid, brief periods of application
Protocol: Ammoniated butyric acid is […]. […] The acetic acid represents the deaminated glycine in this subject composition can be applied one to seven days per week and can be applied multiple times in one day. The duration of application can range from 2 to 60 minutes (or any other chosen interval) per application.

breast cancer cells = assay: Breast cancer cell suspension in vitro treated with polysorbate 80; format: cell-based
Description: Parkinson's disease also has an abnormal protein alpha synuculein intracytoplasmic aggregate/inclusion. Lewy bodies instead of normal random coil repeat proteins structures, cancer with deficiency in HLB modulation and adequate surfactant required by DNA progress through normal rheologic flow required in mitosis with normal cellular and nuclear division and sharing of DNA genetic traits and the resultant formation of normal daughter cells. The darkly stained nuclear mitotic figures makes its appearance as an aggregate plaque or precipitate removed from the normal flow of nuclear function and the microcirculation of nuclear DNA genetic nuclear focus and originating cell division. Response to hydrophilic surfactant in vitro is supportive of this thesis (83 percent of the breast cancer cells were killed in 24 to 48 hours with exposure to 0.25 percent polysorbate 80, Tween 80). Again countering the poor solubility of the plaque-like mechanism disease which contributes to metabolization and the normal metabolic turnover of all cell tissue and organs brings about a disease-free therapeutic response. About one-third of these cancers are associated with inflammatory immunologic response T lymphocytic-plasma cell changes and are of poor prognosis. Response to HLB modulation towards a hydrophilic HLB has provided an 83 percent in-vitro encouraging response reported in other embodiment.
Successful anticancer therapeutic activity cancer tissue cell in vitro′ breast cancer cell suspension comparative trials with treatment with 0.25 percent to 0.5 percent polysorbate 80 (Mean 80) with 83 percent reduction in 24 to 48 hours of cancer cell mitochondrial activity after HLB modulation with tween 80, and 50 percent reduction in cancer cells' abnormal morphology and abnormal mitosis on cytopathologic review.

[4] = test system: pediatric liver transplant recipients; conditions: of 64 pediatric liver transplant recipients; cited from earlier work
[5] = uric acid crystals; cited from earlier work

For N=C(N)NCCC[C@H](N)C(=O)O [Arg, arginine], the ΔH [1] is listed as 11.6 to 13 kcal/mol.
For N[C@@H](CC(=O)O)C(=O)O [Asp, aspartic acid], the “pK of side chain” value [1] is listed as 4.2-4.5.
In the case of N[C@@H](CS)C(=O)O [Cys, cysteine], the “pK of side chain” value [1] is given as 7.5-8.5.
For N[C@@H](CCC(=O)O)C(=O)O [Glu, glutamic acid], the “pK of side chain” value [1] is given as 4.3-4.6.
For N[C@@H](Cc1c[nH]cn1)C(=O)O [His, histidine], the “pK of side chain” value [1] is listed as 6.2-6.5 and the ΔH [1] is listed as 6.93 to 7.53 kcal/mol.
For COc1ccc2c(c1)c(CC(=O)O)c(C)n2C(=O)c1ccc(Cl)cc1 [Indomethacin], the “steady-state concentrations in plasma” value ([2]; after long-term administration) is given as “approximately 0.5 micrograms/ml”, the “time to peak concentration in plasma” value ([2]; fasting subject, oral) is given as no more than 2 h and the “absorption after oral administration” value [2] is given as “rapidly and almost completely absorbed”. The “bound to plasma proteins” value ([2]; in vivo) was 90%, the “converted by O-demethylation” value ([2]; inactive metabolites) was “about 50%” and the “converted by conjugation with glucuronic acid” value ([2]; inactive metabolites) was “about 10%”. For the same molecule, the “concentrations in plasma required for an anti-inflammatory effect” value ([2]; not definitely determined) was “less than 1 microgram per ml”.
For NCCCC[C@H](N)C(=O)O [Lys, lysine], the “pK of side chain” value [1] is listed as 9.8-10.4 and the ΔH [1] is listed as 10 to 11.6 kcal/mol.
In the case of O=C(O)c1cc(/N=N/c2ccc(S(=O)(=O)Nc3ccccn3)cc2)ccc1O [Sulfasalazine, salicylazosulfapyridine], the “absorption after oral administration” value [2] is given as “poorly absorbed”.
In the case of CC(=O)O [acetic acid], the “effect on dermatitis and fungal toe nail infection” value [3] is reported as “dramatically reverse long-term dermatitis and, fungal infection of the toe nail”.
For CCCCCCCC/C=C\CCCCCCCC(=O)OCCOCC(OCCO)C1OCC(OCCO)C1OCCO (stereo not drawn) [polysorbate 80], the “breast cancer cells killed” value (breast cancer cells; 0.25 percent polysorbate 80, 24 to 48 hours) was 83%, the “reduction in cancer cells' abnormal morphology and abnormal mitosis on cytopathologic review” value (breast cancer cells; 0.25 percent to 0.5 percent polysorbate 80) was 50% and the “reduction of cancer cell mitochondrial activity” value (breast cancer cells; 0.25 percent to 0.5 percent polysorbate 80, 24 to 48 hours) was 83%.
In the case of C=CC[C@@H]1/C=C(\C)C[C@H](C)C[C@H](OC)[C@H]2O[C@@](O)(C(=O)C(=O)N3CCCC[C@H]3C(=O)O[C@H](/C(C)=C/[C@@H]3CC[C@@H](O)[C@H](OC)C3)[C@H](C)[C@@H](O)CC1=O)[C@H](C)C[C@@H]2OC [tacrolimus], the “patients who experienced food allergies” value [4] is given as 17% and the “patients who experienced food allergies (number)” value [4] is given as 11.
For O=c1[nH]c(=O)c2[nH]c(=O)[nH]c2[nH]1 [uric acid], the solubility in glycerine [5] is listed as “very soluble” and the solubility in water [5] is listed as “marked insolubility”.
